In ChEMBL document CHEMBL1649449, “Antifungal activities of natural and synthetic iron chelators alone and in combination with azole and polyene antibiotics against Aspergillus fumigatus” (Antimicrob Agents Chemother, 2009) one finds IC50 data, which are given here for two compounds.

The assay deals with Aspergillus fumigatus. Put plainly: Antifungal activity against Aspergillus fumigatus B5233 conidia after 16 hrs by fluorescence-based microplate assay at pH 7.2. The format is functional, organism-based. The settings on record: B5233, 16 h.

What is called IC50 is the concentration at which inhibition is half-maximal. The low end stands for inhibition by little substance, the high end for a need for much substance. Turning to `Cc1cc(C2CCCCC2)n(O)c(=O)c1` [CICLOPIROX], 4220 nM corresponded to half-maximal inhibition (IC50).

The compound `Cc1c(O)c(=O)ccn1C` [DEFERIPRONE] yielded an IC50 of 1290 nM.
